How the values were obtained:
female chickens = conditions: at the time of meiotic segregation, Correa et al. 2005; cited from earlier work
[1] = system: zebra finch (Taeniopygia guttata); test: Example 2: disruption of ovulation, oviposition and embryo development after injection, zebra finches; type: in vivo; conditions: 20 ug injection
Procedure: Zebra finch (Taeniopygia guttata) pairs obtained from a breeding colony maintained at The University of Georgia were housed in individual cages and provided feed and water ad libidumn. Birds were kept under a 14 hour (h) light (L):10 h dark (D) light schedule. Egg-laying was monitored daily and eggs marked to record sequence order. Females were injected intraperitoneally after the first or second egg of the clutch was laid with one of three treatments: 20 μg of CORT dissolved in 50 μl peanut oil and 10% ethanol (CORT), 20 μg of progesterone dissolved in […] and 10% ethanol (P), or 50 μl of control peanut oil (C). A fourth set of females received no injection treatment (UN). […] The follicle ovulating 5 hours after injection, was laid approximately 36 hours after injection (FIG. 3). Ovulating follicles exposed to treatments were laid as the 3rd or 4th egg in the sequence (3rd egg if treatment was administered on the day the 1st egg was laid and the 4th egg in the sequence if treatment was administered on the day the 2nd egg was laid). Eggs were allowed to incubate in the nest for 8-12 days prior to collection to allow sufficient embryonic development for DNA extraction and molecular sexing analyses. Occasionally these treatments disrupted the oviposition immediately following the injection. Females that delayed oviposition after treatment were excluded from analysis because it was not possible to determine whether the egg collected the following day was from the ovulation event that occurred immediately following injection or from a delayed oviposition of the follicle ovulated the day prior to injection. Females that delayed oviposition were allowed to complete the clutch after which the treatment was repeated during the next clutch. […] Only 1/10 females treated with progesterone laid successfully. For this reason, progesterone treatments were eliminated from further analyses.

[2] = system: zebra finches and pigeons; conditions: literature; cited from earlier work

Compound | sex ratio after acute progesterone treatment (female chickens) | eggs with delayed oviposition [1] [eggs] | eggs with no visible development [1] [eggs] | females in which ovulation and oviposition were disrupted [1] [%] | females that laid successfully ([1]; number of treated females) | sex ratio after testosterone treatment [2]
CC(=O)[C@H]1CC[C@H]2[C@@H]3CCC4=CC(=O)CC[C@]4(C)[C@H]3CC[C@]12C [progesterone] | induced a sex ratio skew towards females | 5 | 4 | 90 | 1/10 | 
C[C@]12CC[C@H]3[C@@H](CCC4=CC(=O)CC[C@@]43C)[C@@H]1CC[C@@H]2O [testosterone] |  |  |  |  |  | induced a skew towards males
